In BindingDB's records for aid1799745 (Csar, 2012):

Molecular target: T1, UDP-3-O-acyl-N-acetylglucosamine deacetylase (Aquifex aeolicus (strain VF5), UniProt O67648)
T1 sequence (O67648 whole entry): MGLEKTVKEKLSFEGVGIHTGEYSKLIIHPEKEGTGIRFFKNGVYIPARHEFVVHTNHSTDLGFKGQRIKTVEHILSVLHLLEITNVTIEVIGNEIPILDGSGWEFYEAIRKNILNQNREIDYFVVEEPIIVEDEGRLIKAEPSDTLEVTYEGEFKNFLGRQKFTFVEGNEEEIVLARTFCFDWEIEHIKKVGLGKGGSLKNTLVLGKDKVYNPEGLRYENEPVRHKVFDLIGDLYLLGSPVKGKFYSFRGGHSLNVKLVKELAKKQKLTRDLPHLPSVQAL
Assay: Thermofluor
Conditions: pH 7; 25 °C

CN(C)c1ccc(C2=N[C@@H](C(=O)NO)CO2)cc1 [CS273]
Kd: > 100 µM

CC1(CNC(=O)c2ccc(C#Cc3ccccc3)cc2)NC(=O)NC1=O (stereo unspecified) [CS22]
Kd: 93.4 µM

NC[C@H](NC(=O)c1ccc(C#CC#Cc2ccccc2)cc1)C(=O)NO [CS252]
Kd: 0.059 µM

CC1(CNC(=O)c2ccc(-c3ccc(Br)cc3)cc2)NC(=O)NC1=O (stereo unspecified) [CS23]
Kd: > 100 µM

O=C(NO)[C@H]1COC(c2ccc([N+](=O)[O-])cc2)=N1 [CS268]
Kd: 7.25 µM

C[C@@H](O)[C@H](NC(=O)c1ccc(-c2ccc(Br)cc2)cc1)C(=O)NCC1(C)NC(=O)NC1=O (stereo partly specified) [CS256]
Kd: > 100 µM

CC1(CNC(=O)[C@H](CN)NC(=O)c2ccc(-c3ccccc3)cc2)NC(=O)NC1=O (stereo partly specified) [CS264]
Kd: > 100 µM

CC1(CNC(=O)[C@H](CN)NC(=O)c2ccc(-c3ccc(Br)cc3)cc2)NC(=O)NC1=O (stereo partly specified) [CS267]
Kd: > 100 µM

O=C(NO)[C@H]1COC(c2cc3cc(F)ccc3[nH]2)=N1 [CS272]
Kd: 2.5 µM

C[C@@H](O)[C@H](NC(=O)c1ccc(C#Cc2ccccc2)cc1)C(=O)NCC1(C)NC(=O)NC1=O (stereo partly specified) [CS254]
Kd: > 100 µM

C[C@@H](O)[C@H](NC(=O)c1ccc(-c2ccccc2)cc1)C(=O)NCC1(C)NC(=O)NC1=O (stereo partly specified) [CS253]
Kd: > 100 µM

CC1(CNC(=O)c2ccc(-c3ccccc3)cc2)NC(=O)NC1=O (stereo unspecified) [CS21]
Kd: > 100 µM

C[C@@H](O)[C@H](NC(=O)c1ccc(C#CC#Cc2ccccc2)cc1)C(=O)NCC1(C)NC(=O)NC1=O (stereo partly specified) [CS255]
Kd: > 100 µM

O=C(NO)c1csc(-c2ccc(OC(F)(F)F)c(Cl)c2)n1 [CS275]
Kd: 21.5 µM

CCCc1ccc(-c2ccc(C3=N[C@@H](C(=O)NO)CO3)cc2)cc1 [CS274]
Kd: 15.6 µM

C[C@@H](O)[C@H](NC(=O)c1ccc(-c2ccc(Br)cc2)cc1)C(=O)NO [CS258]
Kd: 0.033 µM

CN(C)c1ccc(-c2nc(C(=O)NO)cs2)cc1 [CS278]
Kd: 28.2 µM

C[C@@H](O)[C@H](NC(=O)c1ccc(-c2ccccc2)cc1)C(=O)NO [CS263]
Kd: 0.075 µM

NC[C@H](NC(=O)c1ccc(-c2ccc(Br)cc2)cc1)C(=O)NO [CS250]
Kd: 0.19 µM

O=C(NO)C1=C[SiH2]C(c2ccc(F)cc2)=N1 (stereo unspecified) [CS276]
Kd: 28.5 µM

C[C@@H](O)[C@H](NC(=O)c1ccc(C#Cc2ccccc2)cc1)C(=O)NO [CS259]
Kd: 0.02 µM

O=C(NO)c1csc(-c2ccc(F)c(C(F)(F)F)c2)n1 [CS277]
Kd: 2.91 µM

CC1(CNC(=O)[C@H](CN)NC(=O)c2ccc(C#CC#Cc3ccccc3)cc2)NC(=O)NC1=O (stereo partly specified) [CS265]
Kd: > 100 µM

CC1(CNC(=O)[C@H](CN)NC(=O)c2ccc(C#Cc3ccccc3)cc2)NC(=O)NC1=O (stereo partly specified) [CS266]
Kd: > 100 µM

O=C(NO)[C@H]1COC(c2ccc(OC(F)(F)F)c(Cl)c2)=N1 [CS270]
Kd: 3.8 µM

NC[C@H](NC(=O)c1ccc(-c2ccccc2)cc1)C(=O)NO [CS249]
Kd: 0.393 µM

O=C(NO)[C@H]1COC(c2ccc(F)c(C(F)(F)F)c2)=N1 [CS271]
Kd: 1.03 µM

C[C@@H](O)[C@H](NC(=O)c1ccc(C#CC#Cc2ccccc2)cc1)C(=O)NO [CS257]
Kd: 0.008 µM

CC1(CNC(=O)c2ccc(C#CC#Cc3ccccc3)cc2)NC(=O)NC1=O (stereo unspecified) [CS243]
Kd: 63.9 µM

O=C(NO)[C@H]1COC(c2ccc(F)cc2)=N1 [CS279]
Kd: 11.1 µM

O=C(NO)[C@H]1COC(c2ccc(OCc3cccc(F)c3)c(OC(F)(F)F)c2)=N1 [CS269]
Kd: > 100 µM
